Assay results reported in article PMC11167047 (Cell Death Discovery, 2024).

Key:
Assay in all cases: kinome screen (33PanQinase)
Format in all cases: biochemical
TRKA = target: T1, TRKA (Homo sapiens, UniProt P04629)
T1 construct: purchased Reaction Biology Europe GmbH (formerly ProQinase)
Experimental: (§1) The Kinome Screening was performed by Reaction Biology Europe GmbH (http://reactionbiology.com; Freiburg i. Br., Germany).

PHKG1 = target: T2, PHKG1 (Homo sapiens, UniProt Q16816)
T2 construct: purchased Reaction Biology Europe GmbH (formerly ProQinase)
Experimental: as §1

MATK = target: T3, MATK (Homo sapiens, UniProt P42679)
T3 construct: purchased Reaction Biology Europe GmbH (formerly ProQinase)
T3 sequence (P42679 1-507): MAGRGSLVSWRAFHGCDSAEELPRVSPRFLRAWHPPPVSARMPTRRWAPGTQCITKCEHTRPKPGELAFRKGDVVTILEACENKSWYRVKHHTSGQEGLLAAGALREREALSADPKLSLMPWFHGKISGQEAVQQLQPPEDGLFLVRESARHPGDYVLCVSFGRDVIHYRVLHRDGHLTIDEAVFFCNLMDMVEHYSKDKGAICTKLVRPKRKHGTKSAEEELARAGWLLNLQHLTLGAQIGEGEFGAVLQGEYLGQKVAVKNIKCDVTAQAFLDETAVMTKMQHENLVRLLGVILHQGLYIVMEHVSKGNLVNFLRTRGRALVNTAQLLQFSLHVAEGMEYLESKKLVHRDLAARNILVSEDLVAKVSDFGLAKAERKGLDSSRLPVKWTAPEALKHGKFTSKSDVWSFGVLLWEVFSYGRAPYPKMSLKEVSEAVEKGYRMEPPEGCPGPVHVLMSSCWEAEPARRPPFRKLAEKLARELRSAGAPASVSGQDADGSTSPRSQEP
Experimental: as §1

GRK7 = target: T4, GRK7 (Homo sapiens, UniProt Q8WTQ7)
T4 construct: purchased Reaction Biology Europe GmbH (formerly ProQinase)
T4 sequence (Q8WTQ7 1-553): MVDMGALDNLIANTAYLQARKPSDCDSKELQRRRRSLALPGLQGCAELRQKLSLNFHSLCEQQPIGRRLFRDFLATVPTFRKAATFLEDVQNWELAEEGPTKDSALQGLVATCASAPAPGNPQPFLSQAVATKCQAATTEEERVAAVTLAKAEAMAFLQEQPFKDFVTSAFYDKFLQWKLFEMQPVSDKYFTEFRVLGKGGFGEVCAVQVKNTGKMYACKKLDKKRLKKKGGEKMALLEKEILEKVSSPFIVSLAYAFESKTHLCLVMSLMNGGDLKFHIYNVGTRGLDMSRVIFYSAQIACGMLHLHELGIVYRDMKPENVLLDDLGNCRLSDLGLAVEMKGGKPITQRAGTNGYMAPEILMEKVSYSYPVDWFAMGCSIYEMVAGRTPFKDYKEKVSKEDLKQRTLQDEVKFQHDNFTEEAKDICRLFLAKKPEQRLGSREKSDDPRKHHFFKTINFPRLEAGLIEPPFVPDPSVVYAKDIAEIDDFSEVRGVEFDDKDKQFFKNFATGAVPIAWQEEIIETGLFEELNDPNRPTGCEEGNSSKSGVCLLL
Experimental: as §1

LRRK2 = target: T5, LRRK2 (Homo sapiens, UniProt Q5S007)
T5 construct: purchased Reaction Biology Europe GmbH (formerly ProQinase)
Experimental: as §1

CDK20/CycH = target: T6, CDK20/CycH (Homo sapiens, UniProt Q8IZL9)
T6 construct: purchased Reaction Biology Europe GmbH (formerly ProQinase)
Experimental: as §1

CAMK2B = target: T7, CAMK2B (Homo sapiens, UniProt Q13554)
T7 construct: purchased Reaction Biology Europe GmbH (formerly ProQinase)
Experimental: as §1

EPHB4 = target: T8, EPHB4 (Homo sapiens, UniProt P54760)
T8 construct: purchased Reaction Biology Europe GmbH (formerly ProQinase)
T8 sequence (P54760 16-987): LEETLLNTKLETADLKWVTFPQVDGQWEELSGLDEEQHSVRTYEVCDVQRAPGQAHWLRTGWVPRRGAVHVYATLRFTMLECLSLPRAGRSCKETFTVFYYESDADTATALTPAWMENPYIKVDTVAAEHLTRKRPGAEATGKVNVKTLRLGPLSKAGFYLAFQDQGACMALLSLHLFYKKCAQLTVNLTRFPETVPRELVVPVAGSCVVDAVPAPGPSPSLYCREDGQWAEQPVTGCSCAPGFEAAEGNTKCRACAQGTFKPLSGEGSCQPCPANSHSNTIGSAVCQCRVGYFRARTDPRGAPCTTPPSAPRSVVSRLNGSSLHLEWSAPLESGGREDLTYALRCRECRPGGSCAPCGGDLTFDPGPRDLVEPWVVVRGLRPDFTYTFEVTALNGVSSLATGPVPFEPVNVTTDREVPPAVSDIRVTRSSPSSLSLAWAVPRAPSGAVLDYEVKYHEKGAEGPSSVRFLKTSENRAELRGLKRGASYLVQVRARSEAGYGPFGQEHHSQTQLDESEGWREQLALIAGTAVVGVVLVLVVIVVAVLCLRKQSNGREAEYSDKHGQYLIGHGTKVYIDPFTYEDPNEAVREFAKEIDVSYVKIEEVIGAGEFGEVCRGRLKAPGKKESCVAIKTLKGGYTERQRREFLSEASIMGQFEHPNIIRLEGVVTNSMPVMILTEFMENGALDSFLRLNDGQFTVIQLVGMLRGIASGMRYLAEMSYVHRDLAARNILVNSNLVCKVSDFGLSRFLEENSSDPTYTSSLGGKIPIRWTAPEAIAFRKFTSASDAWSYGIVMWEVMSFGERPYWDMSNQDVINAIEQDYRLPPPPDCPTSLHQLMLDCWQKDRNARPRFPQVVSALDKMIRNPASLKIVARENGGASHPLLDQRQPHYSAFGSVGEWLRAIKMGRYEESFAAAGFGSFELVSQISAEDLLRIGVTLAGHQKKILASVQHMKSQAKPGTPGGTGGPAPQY
Experimental: as §1

INSRR = target: T9, INSRR (Homo sapiens, UniProt P14616)
T9 construct: purchased Reaction Biology Europe GmbH (formerly ProQinase)
Experimental: as §1

T7 sequence (Q13554 whole entry): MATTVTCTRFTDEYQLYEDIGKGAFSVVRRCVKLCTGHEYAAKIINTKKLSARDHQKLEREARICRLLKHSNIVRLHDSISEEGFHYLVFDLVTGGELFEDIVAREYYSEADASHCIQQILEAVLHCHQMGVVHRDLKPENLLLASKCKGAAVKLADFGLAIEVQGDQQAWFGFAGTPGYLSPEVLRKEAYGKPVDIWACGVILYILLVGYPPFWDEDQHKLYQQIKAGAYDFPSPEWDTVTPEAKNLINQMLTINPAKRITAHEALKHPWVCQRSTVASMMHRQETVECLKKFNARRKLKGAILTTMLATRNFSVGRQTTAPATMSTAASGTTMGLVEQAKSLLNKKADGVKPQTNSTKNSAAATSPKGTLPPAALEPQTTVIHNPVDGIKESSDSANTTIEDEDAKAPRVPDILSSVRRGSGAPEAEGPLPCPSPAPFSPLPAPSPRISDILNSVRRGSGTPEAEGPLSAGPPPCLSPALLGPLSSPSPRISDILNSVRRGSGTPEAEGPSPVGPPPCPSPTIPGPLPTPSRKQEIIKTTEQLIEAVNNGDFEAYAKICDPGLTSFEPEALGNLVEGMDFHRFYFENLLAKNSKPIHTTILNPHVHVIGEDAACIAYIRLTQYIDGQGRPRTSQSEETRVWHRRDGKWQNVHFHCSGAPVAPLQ
T9 sequence (P14616 27-1297): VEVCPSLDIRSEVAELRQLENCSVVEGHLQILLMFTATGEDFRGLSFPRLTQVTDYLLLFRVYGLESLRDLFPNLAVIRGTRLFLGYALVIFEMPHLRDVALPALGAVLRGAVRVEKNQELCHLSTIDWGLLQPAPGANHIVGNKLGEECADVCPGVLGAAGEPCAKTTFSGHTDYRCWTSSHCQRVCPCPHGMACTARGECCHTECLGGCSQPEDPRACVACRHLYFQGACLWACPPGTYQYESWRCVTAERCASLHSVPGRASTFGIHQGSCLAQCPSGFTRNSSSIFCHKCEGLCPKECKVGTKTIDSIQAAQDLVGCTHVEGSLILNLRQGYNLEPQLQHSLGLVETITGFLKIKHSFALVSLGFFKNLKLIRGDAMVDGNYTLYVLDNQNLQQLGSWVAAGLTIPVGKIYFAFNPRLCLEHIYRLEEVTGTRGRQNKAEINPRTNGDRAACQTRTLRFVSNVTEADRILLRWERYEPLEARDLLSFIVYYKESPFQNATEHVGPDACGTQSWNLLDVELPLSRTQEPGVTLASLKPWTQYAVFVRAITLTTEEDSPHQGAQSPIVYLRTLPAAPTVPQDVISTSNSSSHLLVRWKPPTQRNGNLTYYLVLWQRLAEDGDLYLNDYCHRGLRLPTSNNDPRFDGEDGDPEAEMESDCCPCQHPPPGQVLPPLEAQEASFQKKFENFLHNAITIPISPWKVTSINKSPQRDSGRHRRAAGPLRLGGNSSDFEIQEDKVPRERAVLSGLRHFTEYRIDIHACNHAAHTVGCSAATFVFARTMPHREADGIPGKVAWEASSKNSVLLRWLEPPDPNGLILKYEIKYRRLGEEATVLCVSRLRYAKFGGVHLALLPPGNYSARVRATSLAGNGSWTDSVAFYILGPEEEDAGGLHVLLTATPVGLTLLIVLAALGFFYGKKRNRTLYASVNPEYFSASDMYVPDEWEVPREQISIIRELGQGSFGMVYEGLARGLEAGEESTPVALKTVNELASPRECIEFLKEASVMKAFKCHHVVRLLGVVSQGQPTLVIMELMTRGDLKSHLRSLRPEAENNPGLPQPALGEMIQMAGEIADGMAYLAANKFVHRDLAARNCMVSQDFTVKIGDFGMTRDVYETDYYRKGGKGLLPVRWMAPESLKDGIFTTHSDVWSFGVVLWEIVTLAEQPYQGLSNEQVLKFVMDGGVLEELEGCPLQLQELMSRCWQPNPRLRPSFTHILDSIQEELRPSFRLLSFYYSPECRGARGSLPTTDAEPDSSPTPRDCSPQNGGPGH
T6 sequence (Q8IZL9 whole entry): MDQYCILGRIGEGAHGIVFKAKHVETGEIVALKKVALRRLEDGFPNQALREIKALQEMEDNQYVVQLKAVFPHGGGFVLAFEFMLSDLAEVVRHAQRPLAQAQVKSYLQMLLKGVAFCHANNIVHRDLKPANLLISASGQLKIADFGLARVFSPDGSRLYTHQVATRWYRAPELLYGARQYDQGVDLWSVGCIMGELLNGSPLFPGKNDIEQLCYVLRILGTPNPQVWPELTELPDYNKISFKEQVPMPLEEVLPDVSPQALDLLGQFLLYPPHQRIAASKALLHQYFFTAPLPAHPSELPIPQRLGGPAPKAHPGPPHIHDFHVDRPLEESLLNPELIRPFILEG
T6 sequence (P51946 whole entry partner): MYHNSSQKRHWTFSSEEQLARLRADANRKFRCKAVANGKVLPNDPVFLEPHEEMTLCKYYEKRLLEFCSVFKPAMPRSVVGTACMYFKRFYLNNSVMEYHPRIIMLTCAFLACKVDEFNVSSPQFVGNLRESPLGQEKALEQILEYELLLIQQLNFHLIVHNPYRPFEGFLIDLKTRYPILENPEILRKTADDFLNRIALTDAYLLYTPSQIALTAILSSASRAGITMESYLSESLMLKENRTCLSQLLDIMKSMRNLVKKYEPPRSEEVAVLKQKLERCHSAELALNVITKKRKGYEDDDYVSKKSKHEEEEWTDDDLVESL
T2 sequence (Q16816 whole entry): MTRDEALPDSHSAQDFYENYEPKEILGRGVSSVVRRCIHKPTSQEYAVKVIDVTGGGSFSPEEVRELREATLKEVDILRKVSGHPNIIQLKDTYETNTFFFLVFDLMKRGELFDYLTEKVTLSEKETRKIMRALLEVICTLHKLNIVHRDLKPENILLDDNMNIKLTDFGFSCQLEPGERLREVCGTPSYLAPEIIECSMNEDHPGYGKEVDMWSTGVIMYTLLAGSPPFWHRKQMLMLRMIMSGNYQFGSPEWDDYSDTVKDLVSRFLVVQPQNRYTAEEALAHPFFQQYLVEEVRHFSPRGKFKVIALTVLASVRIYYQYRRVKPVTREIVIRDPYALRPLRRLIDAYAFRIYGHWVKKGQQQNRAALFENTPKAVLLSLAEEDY
T1 sequence (P04629 33-796): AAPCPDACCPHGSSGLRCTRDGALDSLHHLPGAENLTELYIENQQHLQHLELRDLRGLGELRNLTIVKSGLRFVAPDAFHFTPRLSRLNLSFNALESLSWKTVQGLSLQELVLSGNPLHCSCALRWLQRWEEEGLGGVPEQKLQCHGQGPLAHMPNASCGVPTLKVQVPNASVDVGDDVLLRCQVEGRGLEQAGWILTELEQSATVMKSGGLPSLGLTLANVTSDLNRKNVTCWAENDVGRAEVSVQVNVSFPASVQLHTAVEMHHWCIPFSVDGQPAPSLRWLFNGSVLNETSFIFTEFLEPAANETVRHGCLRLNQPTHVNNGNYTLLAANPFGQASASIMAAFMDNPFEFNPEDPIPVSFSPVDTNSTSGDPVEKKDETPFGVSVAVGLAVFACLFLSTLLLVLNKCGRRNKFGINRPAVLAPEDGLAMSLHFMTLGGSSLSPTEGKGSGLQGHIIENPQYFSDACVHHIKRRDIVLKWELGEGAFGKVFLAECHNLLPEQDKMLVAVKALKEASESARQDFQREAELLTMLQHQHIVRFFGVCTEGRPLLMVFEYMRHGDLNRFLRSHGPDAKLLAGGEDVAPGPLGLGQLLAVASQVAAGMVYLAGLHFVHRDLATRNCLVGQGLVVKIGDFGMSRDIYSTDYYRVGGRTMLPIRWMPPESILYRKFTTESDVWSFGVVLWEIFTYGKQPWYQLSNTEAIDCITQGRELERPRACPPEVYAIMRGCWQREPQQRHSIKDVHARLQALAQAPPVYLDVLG

Row | SMILES | residual kinase activity (TRKA; 0.3 µM) | residual kinase activity (PHKG1; 0.3 µM) | residual kinase activity (MATK; 0.3 µM) | residual kinase activity (GRK7; 0.3 µM) | residual kinase activity (LRRK2; 0.3 µM) | residual kinase activity (CDK20/CycH; 0.3 µM) | residual kinase activity (CAMK2B; 0.3 µM) | residual kinase activity (EPHB4; 0.3 µM) | residual kinase activity (INSRR; 0.3 µM) | also measured
1 | COc1ccnc2[nH]cc(-c3cc(N)nc(N)c3)c12 [meriolin 16] | 40 % of control | 39 % of control | 90 % of control | 78 % of control | 8 % of control | 33 % of control | 74 % of control | 90 % of control | 96 % of control | residual kinase activity (TRKA; 0.03 µM): 83 % of control; residual kinase activity (PHKG1; 0.03 µM): 85 % of control; residual kinase activity (MATK; 0.03 µM): 107 % of control; residual kinase activity (GRK7; 0.03 µM): 105 % of control; residual kinase activity (LRRK2; 0.03 µM): 50 % of control; residual kinase activity (CDK20/CycH; 0.03 µM): 38 % of control; residual kinase activity (CAMK2B; 0.03 µM): 103 % of control; residual kinase activity (EPHB4; 0.03 µM): 97 % of control; residual kinase activity (INSRR; 0.03 µM): 97 % of control
2 | c1ccc(CNc2cc(-c3c[nH]c4ncccc34)ccn2)cc1 [meriolin 36] | 9 % of control | 16 % of control | 134 % of control | 94 % of control | 1 % of control | 29 % of control | 83 % of control | 110 % of control | 85 % of control | residual kinase activity (TRKA; 3 µM): 1 % of control; residual kinase activity (PHKG1; 3 µM): 2 % of control; residual kinase activity (MATK; 3 µM): 94 % of control; residual kinase activity (GRK7; 3 µM): 48 % of control; residual kinase activity (LRRK2; 3 µM): 1 % of control; residual kinase activity (CDK20/CycH; 3 µM): 13 % of control; residual kinase activity (CAMK2B; 3 µM): 31 % of control; residual kinase activity (EPHB4; 3 µM): 85 % of control; residual kinase activity (INSRR; 3 µM): 39 % of control
